From the METLIN SMRT retention time set (Domingo-Almenara et al. 2019)

Experiment: gradient 5% acetonitrile 3 min, to 50% in 2 min, to 85% in 15 min, held 3 min, 100 µL/min
Conditions: column: Zorbax Extend-C18 2.1 x 50 mm; eluents: water / acetonitrile, 0.1% formic acid
Summary of the method: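 Values are retention times taken from adduct peaks that software picked and an analyst inspected. The pure standards were run as mixtures of ~100 molecules on HPLC linked to a quadrupole time-of-flight mass spectrometer, in positive and negative ionization mode. A Zorbax Extend-C18 column (2.1 × 50 mm, 1.8 μm) was used at 100 μL/min with water and acetonitrile, each including 0.1% formic acid.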

Compound	RP-LC retention time [s]
CC(=O)Nc1nnc(SCc2nnc(-c3ccccc3C)o2)s1	740
COC(=O)c1cccc(N2C=C(C#N)S(=O)(=O)c3ccc(F)cc32)c1	860
COc1c(C)c2c(c(O)c1C/C=C(\C)CCC(=O)O)C(=O)OC2	800
C=C(C)CNc1nc(-c2ccccc2)c(-c2ccccc2)s1	1040
CCc1noc([C@@H]2CC(F)(F)CN2C(=O)c2nccn2C)n1	744
COCc1nc2cccnc2n1C1CCN(C(=O)Nc2ccc(Br)cc2)CC1	747
CCCNC(=O)C1CCCN(c2ccc(SCC(=O)Nc3ccc(OCC)cc3)nn2)C1 (stereo not given)	595
O=C(c1cccc(-n2cnnn2)c1)N1CCC(c2nnc(-c3ccco3)s2)CC1	651
COC(=O)c1cnc(N2CCN(c3cccc(Cl)c3)CC2)c2ccccc12	1350
O=C(Nc1cccc(F)c1)C1CC(=O)N(c2ccc3c(c2)CCN3C(=O)C2CCC2)C1 (stereo not given)	839
Cc1ccc(-c2nc3ccccn3c2Nc2ccc3c(c2)OCO3)cc1	694
CCc1nc(OCC(=O)NCc2ccccc2)c2ccccc2n1	756
O=C(NCCCN1CCCC1=O)C1CCCN(c2ncnc3c2nc2n3CCCCC2)C1 (stereo not given)	605
Cc1ccc(C(=O)NCc2ccc3c(c2)nnn3C)cc1	693
Cc1ccc(C)c(CS(=O)(=O)NCCc2cn(CC(C)C)c3ncccc23)c1	1070
CC[C@H](C)C(=O)O[C@H]1C[C@H](O)C=C2C=C[C@H](C)[C@H](CC[C@@H]3C[C@@H](O)CC(=O)O3)[C@H]21	891
CC(C)c1cc(N2CCN(C(=O)c3ccc(N(C)C)cc3)CC2)nc2nncn12	606
COc1cccc(CN2CCc3nc(N4CCN(c5ccccc5)CC4)ncc3C2)c1OC	762
CN(CC(=O)N1CC=C(c2ccccc2)CC1)S(=O)(=O)c1ccc2c(c1)CCCC(=O)N2	746
O=C1CCN(C(=O)COc2ccccc2Cl)c2ccccc2N1	718
CCc1noc(-c2ccnc(-n3ncc(C(=O)N4CCC(C)CC4)c3C)c2)n1	1020
CCc1ccccc1S(=O)(=O)N(C)CC1CCOCC1	902
COc1ccc(NS(=O)(=O)c2cc3c(s2)CCN(C(=O)C2CCC2)C3)cc1Cl	893

Compound	RP-LC retention time [s]
Cc1noc(-c2ccnc(-n3ncc(C(=O)NCCc4c[nH]c5ccccc45)c3C)c2)n1	903
Cc1ccnc(NC(=O)NCCCSc2nnc(-c3ccccc3)o2)n1	727
CCCC(NC(=O)Cc1cccc(OC)c1)C(=O)Nc1nc2ccccc2[nH]1 (stereo not given)	700
Cc1ccc(N2CC(C(=O)N(C)C)CC2=O)cc1 (stereo not given)	673
COC(=O)C1=CN(c2cccc(F)c2)c2cc(Br)ccc2S1(=O)=O	928
CCc1noc(NC(C)=O)c1-c1ccc(OC)c(S(=O)(=O)Nc2cc(C)cc(C)c2)c1	852
Cc1nnc2ccc(-c3noc(-c4cccc(F)c4)n3)cn12	881
CC(C)(C)OC(=O)Nc1ccc(-c2cc(C(=O)NCCCCCCC(=O)NO)no2)cc1	739
COCCNC(=O)C1CCN(c2nc3ccc(-c4cccs4)nc3s2)CC1	774
Cc1cccc(NC(=O)N2[C@H]3CC[C@@H]2c2cncnc2C3)c1	674
Cc1nc2cc(-c3noc(-c4ccc(F)c(Cl)c4)n3)ccc2o1	1270
CC1(CNC(=O)NCc2cccc(F)c2)CCOCC1	684
Cc1ccc(-c2nc3ncccn3c2Nc2ccc(C)cc2C)cc1	838
CC(=O)N1CCc2sc(C(=O)N3CCN(c4ccccc4F)CC3)cc2C1	784
O=S(=O)(c1ccc2c(c1)CCCC2)N1CCCn2nc(-c3cccnc3)cc2C1	781
COc1ccc(OCC(=O)Nc2ccc3c(c2)N(C(=O)c2ccco2)CCC3)cc1	861
CCCn1cnc2cc(CNC(=O)c3ccc(-n4c(C)ccc4C)cc3)ccc21	722
O=c1oc2c(O)c(O)ccc2c2c1CCCC2	683
CN(C)S(=O)(=O)c1ccc2c(c1)cc(C(=O)NCCc1c[nH]c3ccccc13)n2C	895
O=C(CSc1cn(CCNC(=O)c2ccccc2)c2ccccc12)Nc1ccccc1F	863
Cc1cc(=O)n(CC(=O)Nc2ccc(Br)cc2)c(N)n1	609
CCOc1cccc2c(C)nc(NC3=NCN(CCOC)CN3)nc12	643
Cc1nnc(-c2ccc3ccn(CC(=O)N4CCN(c5ccccc5F)CC4)c3c2)o1	867

Compound	RP-LC retention time [s]
O=C(Cc1c[nH]c2ccccc12)N1CCCN(C2CCN(CC3CC3)C2=O)CC1 (stereo not given)	610
Cn1cc(CN2CCC(C(=O)NCc3ccccc3)CC2)c2cc(Cl)ccc21	714
CN1C(=O)Cc2cc(C(=O)N3CCN(c4ccccc4F)CC3)ccc21	765
CCc1ccc(NC(=O)C2CCCN(c3nccnc3Sc3ccc(C)cc3)C2)cc1 (stereo not given)	1290
CCOc1ccc(NC(=O)N2CCCC(C)(C(=O)NCc3ccccc3C)C2)cc1 (stereo not given)	855
C=CCN1C(=O)CC(Nc2ccc(CC)cc2)C1=O (stereo not given)	846
Nc1cc(=O)nc(SCC(=O)Nc2nc(-c3ccccc3)cs2)n1-c1ccccc1	727
Cn1nnc2c(SCc3c(F)cccc3Cl)ncnc21	933
CCc1nnc(NC(=O)CSc2nccn2-c2ccc(F)cc2)s1	653
CCC(=O)N1CCc2cc(N3CC(C(=O)NC(C)C)CC3=O)ccc21 (stereo not given)	647
Cc1ccccc1OCc1ccc(-c2nc(C#N)c(NCCCN(C)C)o2)o1	727
Cn1cc(-c2cc3n(n2)CCCN3C(=O)CCC(=O)NCCCN2CCCCC2)c2ccccc21	623
Cc1c(F)cccc1NC(=O)Nc1ccc2nnc(C)n2c1	718
CC(C)NC(=O)c1ccccc1OCC1CCCNC1 (stereo not given)	583
CCN(CC)CCCNC(=O)CCc1c(-c2ccc(Br)cc2)nc2ccccn12	559
CCn1cc(-c2ccc(C)cc2)cc1C(=O)NCC1CCCO1 (stereo not given)	614
O=C(O)CSc1nnc(-c2ccc(Cl)cc2Cl)n1Cc1ccccc1	771
COC(=O)C1=C(N)C(=O)N(CCc2ccc(OC)c(OC)c2)C1	648
O=C(CC1CCN(C(=O)Nc2ccccc2)CC1)N1CCN(c2ccccn2)CC1	603
Cc1nn(Cc2nc(-c3ccc(NC(=O)C4CCCC4)cc3)oc2C)c(C)c1C	860
Cc1ccc(/C=C2\CCOC2=O)cc1	916
Cc1ccc(CNC(=O)C2CCCN(S(=O)(=O)c3cc(-c4noc(C)n4)cs3)C2)cc1 (stereo not given)	974
O=C(Nc1cccc(Cl)c1)c1c(O)c2cccnc2n(-c2ccc(F)cc2)c1=O	1320

Compound	RP-LC retention time [s]
CCN1C(=O)COc2ccc(-c3noc(-c4cccc(NC(C)=O)c4)n3)cc21	848
CCOC(=O)C1=C(CN2CCC(C(=O)OCC)CC2)NC(=O)NC1c1ccc(Cl)cc1 (stereo not given)	673
COc1ccc(OCC(=O)N(C)CCc2noc(COc3ccccc3F)n2)cc1	848
Cn1cc(C(=O)N2CC(c3noc(C4CCCN4CC4CC4)n3)C2)cn1 (stereo not given)	549
CCOc1cccc(CNc2nccc(-n3nc(C)cc3C)n2)c1	858
O=C(Cn1nc(C(=O)N2CCCC2)c2ccccc21)NCc1ccccc1Cl	824
Cc1nc2scc(C)n2c(=O)c1NC(=O)CCSc1ccccc1	675
COc1ccc(C2CC(=O)Nc3c(C(=O)O)cn(-c4cccc(C(F)(F)F)c4)c32)cc1OC (stereo not given)	780
O=C(NCc1csc(-c2ccccc2)n1)[C@H]1CCCN1C(=O)COc1ccc(Cl)cc1	861
COc1cc(NC(=O)CN2C(=O)C(O)(c3ccccc3)c3ccccc32)cc(OC)c1 (stereo not given)	872
Cc1nn(-c2ccccc2)c(C)c1S(=O)(=O)N1CCC(C(=O)Nc2ccc(F)c(Cl)c2)CC1	1050
CC(=O)N(Cc1nn(C)c2c1CN(S(=O)(=O)c1ccc3c(c1)CCC3)CC2)c1ccccc1	868
CCCn1c(C)cnc1C1CN(S(=O)(=O)c2ccc(F)c(Cl)c2)C1	706
COc1cc(F)ccc1-c1ccnc2nc(C3CCC3)nn12	864
CCN1CCN(CCCNC(=O)c2ccc3c(c2)N(C)C(=O)C2CCCCN32)CC1 (stereo not given)	554
COCCNC(=O)c1ccc2c(c1)N(Cc1ccc(C)cc1)C(=O)CO2	748
CCCS(=O)(=O)N1CC(=O)N(c2ccc(F)cc2C)C(C)(C(=O)NC2CCCCCC2)C1 (stereo not given)	988
CCOc1cc([C@@H](CS(C)(=O)=O)N2C(=O)c3cccc(NC(C)=O)c3C2=O)ccc1OC	859
CCOC(=O)C1CCN(c2cc3c(cc2NC(=O)NC)n(C)c(=O)n3C)CC1	633
COc1cccc(OCC(O)CN2CCN(c3ccc(Cl)cc3)CC2)c1 (stereo not given)	724
COc1cccc(C(=O)NC2(C(F)(F)F)C(=O)N(CC3CCCO3)C3=C2C(=O)CC(C)(C)C3)c1 (stereo not given)	922
